Source: PubChem BioAssay (NCI)
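Five concentrations, 48 hours, 96-well plates. TGI marks complete inhibition of growth.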

Columns and labels:
Assay in all cases: NCI anticancer screen, dose series, 48 h
NCI-H23 lung = test system: NCI-H23 lung
XF 498 CNS = test system: XF 498 CNS
SF-268 CNS = test system: SF-268 CNS
CAKI-1 renal = test system: CAKI-1 renal
OVCAR-4 ovarian = test system: OVCAR-4 ovarian
U251 CNS = test system: U251 CNS
OVCAR-3 ovarian = test system: OVCAR-3 ovarian
NCI-H226 lung = test system: NCI-H226 lung
M14 melanoma = test system: M14 melanoma
UACC-62 melanoma = test system: UACC-62 melanoma
SN12C renal = test system: SN12C renal
SK-MEL-5 melanoma = test system: SK-MEL-5 melanoma
KM12 colon = test system: KM12 colon
HOP-92 NSCLC = test system: HOP-92 NSCLC
EKVX NSCLC = test system: EKVX NSCLC
SR leukemia = test system: SR leukemia
SF-295 CNS = test system: SF-295 CNS
MALME-3M melanoma = test system: MALME-3M melanoma
UACC-257 melanoma = test system: UACC-257 melanoma
ACHN renal = test system: ACHN renal
HCT-15 colon = test system: HCT-15 colon
OVCAR-8 ovarian = test system: OVCAR-8 ovarian
SNB-75 CNS = test system: SNB-75 CNS
TK-10 renal = test system: TK-10 renal
SK-MEL-28 melanoma = test system: SK-MEL-28 melanoma
IGROV1 ovarian = test system: IGROV1 ovarian
DMS 273 small cell lung = test system: DMS 273 small cell lung
COLO 205 colon = test system: COLO 205 colon
M19-MEL melanoma = test system: M19-MEL melanoma
LOX IMVI melanoma = test system: LOX IMVI melanoma
SW-620 colon = test system: SW-620 colon
SK-OV-3 ovarian = test system: SK-OV-3 ovarian
K-562 leukemia = test system: K-562 leukemia
OVCAR-5 ovarian = test system: OVCAR-5 ovarian
RXF 393 renal = test system: RXF 393 renal
SK-MEL-2 melanoma = test system: SK-MEL-2 melanoma
HT29 colon = test system: HT29 colon
NCI-H460 lung = test system: NCI-H460 lung
CCRF-CEM leukemia = test system: CCRF-CEM leukemia
RPMI-8226 leukemia = test system: RPMI-8226 leukemia
KM20L2 colon = test system: KM20L2 colon
UO-31 renal = test system: UO-31 renal
HCT-116 colon = test system: HCT-116 colon
MOLT-4 leukemia = test system: MOLT-4 leukemia
DMS 114 small cell lung = test system: DMS 114 small cell lung
HCC-2998 colon = test system: HCC-2998 colon
LXFL 529 NSCLC = test system: LXFL 529 NSCLC
NCI-H522 lung = test system: NCI-H522 lung
DLD-1 colon = test system: DLD-1 colon
HOP-62 NSCLC = test system: HOP-62 NSCLC
HOP-18 NSCLC = test system: HOP-18 NSCLC
A549 NSCLC = test system: A549 NSCLC
SNB-78 CNS = test system: SNB-78 CNS
SNB-19 CNS = test system: SNB-19 CNS
786-0 renal = test system: 786-0 renal
HL-60(TB) leukemia = test system: HL-60(TB) leukemia
SF-539 CNS = test system: SF-539 CNS

## CCC1C[N+]23CCc4c([nH]c5ccccc45)C2CC1CC3 (configuration not stated)
NCI-H23 lung
  TGI: > 100 µM
XF 498 CNS
  TGI: > 100 µM
SF-268 CNS
  TGI: > 100 µM
CAKI-1 renal
  TGI: > 100 µM
OVCAR-4 ovarian
  TGI: > 100 µM
U251 CNS
  TGI: > 100 µM
OVCAR-3 ovarian
  TGI: > 100 µM
NCI-H226 lung
  TGI: > 100 µM
M14 melanoma
  TGI: > 100 µM
UACC-62 melanoma
  TGI: > 100 µM
SN12C renal
  TGI: > 100 µM
SK-MEL-5 melanoma
  TGI: 48.9 µM
KM12 colon
  TGI: > 100 µM
HOP-92 NSCLC
  TGI: > 100 µM
EKVX NSCLC
  TGI: > 100 µM
SR leukemia
  TGI: > 100 µM
SF-295 CNS
  TGI: > 100 µM
MALME-3M melanoma
  TGI: 97.4 µM
UACC-257 melanoma
  TGI: > 100 µM
ACHN renal
  TGI: > 100 µM
HCT-15 colon
  TGI: > 100 µM
OVCAR-8 ovarian
  TGI: > 100 µM
SNB-75 CNS
  TGI: > 100 µM
TK-10 renal
  TGI: > 100 µM
SK-MEL-28 melanoma
  TGI: > 100 µM
IGROV1 ovarian
  TGI: > 100 µM
DMS 273 small cell lung
  TGI: > 100 µM
COLO 205 colon
  TGI: > 100 µM
M19-MEL melanoma
  TGI: > 100 µM
LOX IMVI melanoma
  TGI: > 100 µM
SW-620 colon
  TGI: > 100 µM
SK-OV-3 ovarian
  TGI: > 100 µM
K-562 leukemia
  TGI: > 100 µM
OVCAR-5 ovarian
  TGI: > 100 µM
RXF 393 renal
  TGI: > 100 µM
SK-MEL-2 melanoma
  TGI: > 100 µM
HT29 colon
  TGI: > 100 µM
NCI-H460 lung
  TGI: > 100 µM
CCRF-CEM leukemia
  TGI: > 100 µM
RPMI-8226 leukemia
  TGI: > 100 µM
KM20L2 colon
  TGI: > 100 µM
UO-31 renal
  TGI: > 100 µM
HCT-116 colon
  TGI: > 100 µM
MOLT-4 leukemia
  TGI: 95.2 µM
DMS 114 small cell lung
  TGI: > 100 µM
HCC-2998 colon
  TGI: > 100 µM
LXFL 529 NSCLC
  TGI: > 100 µM
NCI-H522 lung
  TGI: > 100 µM
DLD-1 colon
  TGI: > 100 µM
HOP-62 NSCLC
  TGI: > 100 µM

## CCN1C[C@]2(C)CC[C@H](O)C34C1C(C[C@@H]32)[C@@]1(O)CC[C@H]2C[C@@H]4[C@@H]1[C@H]2O
NCI-H23 lung
  TGI: > 100 µM
SF-268 CNS
  TGI: > 100 µM
CAKI-1 renal
  TGI: > 100 µM
OVCAR-4 ovarian
  TGI: > 100 µM
U251 CNS
  TGI: > 100 µM
OVCAR-3 ovarian
  TGI: > 100 µM
M14 melanoma
  TGI: > 100 µM
UACC-62 melanoma
  TGI: > 100 µM
SN12C renal
  TGI: > 100 µM
SK-MEL-5 melanoma
  TGI: > 100 µM
KM12 colon
  TGI: > 100 µM
HOP-18 NSCLC
  TGI: > 100 µM
HOP-92 NSCLC
  TGI: > 100 µM
A549 NSCLC
  TGI: > 100 µM
SR leukemia
  TGI: > 100 µM
SF-295 CNS
  TGI: > 100 µM
MALME-3M melanoma
  TGI: > 100 µM
UACC-257 melanoma
  TGI: > 100 µM
ACHN renal
  TGI: > 100 µM
HCT-15 colon
  TGI: > 100 µM
SNB-78 CNS
  TGI: > 100 µM
OVCAR-8 ovarian
  TGI: > 100 µM
SNB-75 CNS
  TGI: > 100 µM
TK-10 renal
  TGI: > 100 µM
SK-MEL-28 melanoma
  TGI: > 100 µM
IGROV1 ovarian
  TGI: > 100 µM
DMS 273 small cell lung
  TGI: > 100 µM
COLO 205 colon
  TGI: > 100 µM
SNB-19 CNS
  TGI: > 100 µM
786-0 renal
  TGI: > 100 µM
M19-MEL melanoma
  TGI: > 100 µM
LOX IMVI melanoma
  TGI: > 100 µM
SW-620 colon
  TGI: > 100 µM
SK-OV-3 ovarian
  TGI: > 100 µM
HL-60(TB) leukemia
  TGI: > 100 µM
OVCAR-5 ovarian
  TGI: > 100 µM
RXF 393 renal
  TGI: > 100 µM
SK-MEL-2 melanoma
  TGI: > 100 µM
HT29 colon
  TGI: > 100 µM
NCI-H460 lung
  TGI: > 100 µM
CCRF-CEM leukemia
  TGI: > 100 µM
RPMI-8226 leukemia
  TGI: > 100 µM
KM20L2 colon
  TGI: > 100 µM
UO-31 renal
  TGI: > 100 µM
HCT-116 colon
  TGI: > 100 µM
SF-539 CNS
  TGI: > 100 µM
MOLT-4 leukemia
  TGI: > 100 µM
DMS 114 small cell lung
  TGI: > 100 µM
LXFL 529 NSCLC
  TGI: > 100 µM
NCI-H522 lung
  TGI: > 100 µM
DLD-1 colon
  TGI: > 100 µM
HOP-62 NSCLC
  TGI: > 100 µM
